Assay results as given in article PMC9848257, “Design and synthesis of novel rigid dibenzo[b,f]azepines through ring closure technique as promising anticancer candidates against leukaemia and acting as selective topoisomerase II inhibitors and DNA intercalators” (Journal of Enzyme Inhibition and Medicinal Chemistry, 2023).

Columns and labels:
Assay type in all cases: cell-based
[1] = tested on: T-47D; experiment: NCI-60 one-dose screen, T-47D; conditions: Homo sapiens, T47D, breast cancer, single dose 10 μM, read-out: Growth inhibition %
Procedure: (§1) Anti-proliferative effects of the counterparts 4a–g and 5a–g were screened against 60 human cancer cell lines, following the Developmental Therapeutics Program protocol, National Cancer Institute[35].
(§2) The anti-tumour activity of the fourteen synthesised congeners was investigated at the NCI against a panel of 60 cancer cell lines (NCI-60 Cell One-Dose Screen). The tested dibenzo[b,f]azepine derivatives were screened at a single dose level (10 μM), Table 1.

[2] = tested on: MALME-3M; experiment: NCI-60 one-dose screen, MALME-3M; conditions: Homo sapiens, melanoma, single dose 10 μM, read-out: Growth inhibition %
Procedure: as §1, §2

[3] = tested on: HOP-62; experiment: NCI-60 one-dose screen, HOP-62; conditions: Homo sapiens; HOP-62, non-small cell lung cancer; single dose 10 μM; read-out: Growth inhibition %
Procedure: as §1, §2

[4] = tested on: HS 578 T; experiment: NCI-60 one-dose screen, HS 578 T; conditions: Homo sapiens, breast cancer, single dose 10 μM, read-out: Growth inhibition %
Procedure: as §1, §2

[5] = tested on: OVCAR-4; experiment: NCI-60 one-dose screen, OVCAR-4; conditions: Homo sapiens; OVCAR-4, ovarian cancer; single dose 10 μM; read-out: Growth inhibition %
Procedure: as §1, §2

[6] = tested on: ACHN; experiment: NCI-60 one-dose screen, ACHN; conditions: Homo sapiens, renal cancer, single dose 10 μM, read-out: Growth inhibition %
Procedure: as §1, §2

[7] = tested on: OVCAR-3; experiment: NCI-60 one-dose screen, OVCAR-3; conditions: Homo sapiens; OVCAR-3, ovarian cancer; single dose 10 μM; read-out: Growth inhibition %
Procedure: as §1, §2

[8] = tested on: A549-ATCC; experiment: NCI-60 one-dose screen, A549-ATCC; conditions: Homo sapiens, non-small cell lung cancer, single dose 10 μM, read-out: Growth inhibition %
Procedure: as §1, §2

[9] = tested on: HOP-92; experiment: NCI-60 one-dose screen, HOP-92; conditions: Homo sapiens; HOP-92, non-small cell lung cancer; single dose 10 μM; read-out: Growth inhibition %
Procedure: as §1, §2

[10] = tested on: NCI-H23; experiment: NCI-60 one-dose screen, NCI-H23; conditions: Homo sapiens; NCI-H23, non-small cell lung cancer; single dose 10 μM; read-out: Growth inhibition %
Procedure: as §1, §2

[11] = tested on: HT29; experiment: NCI-60 one-dose screen, HT29; conditions: Homo sapiens, HT-29; HT29, colon cancer; single dose 10 μM; read-out: Growth inhibition %
Procedure: as §1, §2

[12] = tested on: COLO 205; experiment: NCI-60 one-dose screen, COLO 205; conditions: Homo sapiens; COLO 205, colon cancer; single dose 10 μM; read-out: Growth inhibition %
Procedure: as §1, §2

[13] = tested on: NCI-H460; experiment: NCI-60 one-dose screen, NCI-H460; conditions: Homo sapiens; NCI-H460, non-small cell lung cancer; single dose 10 μM; read-out: Growth inhibition %
Procedure: as §1, §2

[14] = tested on: U251; experiment: NCI-60 one-dose screen, U251; conditions: Homo sapiens, U-251; U251, CNS cancer; single dose 10 μM; read-out: Growth inhibition %
Procedure: as §1, §2

[15] = tested on: SNB-19; experiment: NCI-60 one-dose screen, SNB-19; conditions: Homo sapiens; SNB-19, CNS cancer; single dose 10 μM; read-out: Growth inhibition %
Procedure: as §1, §2

[16] = tested on: SN12C; experiment: NCI-60 one-dose screen, SN12C; conditions: Homo sapiens, renal cancer, single dose 10 μM, read-out: Growth inhibition %
Procedure: as §1, §2

[17] = tested on: RPMI-8226; experiment: NCI-60 one-dose screen, RPMI-8226; conditions: Homo sapiens; RPMI-8226, leukaemia; single dose 10 μM; read-out: Growth inhibition %
Procedure: as §1, §2

[18] = tested on: MDA-MB-435; experiment: NCI-60 one-dose screen, MDA-MB-435; conditions: Homo sapiens; MDA-MB-435, melanoma; single dose 10 μM; read-out: Growth inhibition %
Procedure: as §1, §2

[19] = tested on: NCI-H522; experiment: NCI-60 one-dose screen, NCI-H522; conditions: Homo sapiens; NCI-H522, non-small cell lung cancer; single dose 10 μM; read-out: Growth inhibition %
Procedure: as §1, §2

[20] = tested on: LOX IMVI; experiment: NCI-60 one-dose screen, LOX IMVI; conditions: Homo sapiens, melanoma, single dose 10 μM, read-out: Growth inhibition %
Procedure: as §1, §2

[21] = tested on: DU-145; experiment: NCI-60 one-dose screen, DU-145; conditions: Homo sapiens; DU-145, prostate cancer; single dose 10 μM; read-out: Growth inhibition %
Procedure: as §1, §2

[22] = tested on: HCC-2998; experiment: NCI-60 one-dose screen, HCC-2998; conditions: Homo sapiens; HCC-2998, colon cancer; single dose 10 μM; read-out: Growth inhibition %
Procedure: as §1, §2

[23] = tested on: SF-268; experiment: NCI-60 one-dose screen, SF-268; conditions: Homo sapiens; SF-268, CNS cancer; single dose 10 μM; read-out: Growth inhibition %
Procedure: as §1, §2

[24] = tested on: EKVX; experiment: NCI-60 one-dose screen, EKVX; conditions: Homo sapiens, non-small cell lung cancer, single dose 10 μM, read-out: Growth inhibition %
Procedure: as §1, §2

[25] = tested on: CCRF-CEM; experiment: NCI-60 one-dose screen, CCRF-CEM; conditions: Homo sapiens, leukaemia, single dose 10 μM, read-out: Growth inhibition %
Procedure: as §1, §2

[26] = tested on: A498; experiment: NCI-60 one-dose screen, A498; conditions: Homo sapiens; A498, renal cancer; single dose 10 μM; read-out: Growth inhibition %
Procedure: as §1, §2

[27] = tested on: KM12; experiment: NCI-60 one-dose screen, KM12; conditions: Homo sapiens; KM12, colon cancer; single dose 10 μM; read-out: Growth inhibition %
Procedure: as §1, §2

[28] = tested on: SR; experiment: NCI-60 one-dose screen, SR; conditions: Homo sapiens, leukaemia, single dose 10 μM, read-out: Growth inhibition %
Procedure: as §1, §2

[29] = tested on: HL-60(TB); experiment: NCI-60 one-dose screen, HL-60(TB); conditions: Homo sapiens, leukaemia, single dose 10 μM, read-out: Growth inhibition %
Procedure: as §1, §2

[30] = tested on: UACC-62; experiment: NCI-60 one-dose screen, UACC-62; conditions: Homo sapiens; UACC-62, melanoma; single dose 10 μM; read-out: Growth inhibition %
Procedure: as §1, §2

[31] = tested on: OVCAR-8; experiment: NCI-60 one-dose screen, OVCAR-8; conditions: Homo sapiens; OVCAR-8, ovarian cancer; single dose 10 μM; read-out: Growth inhibition %
Procedure: as §1, §2

[32] = tested on: HCT-15; experiment: NCI-60 one-dose screen, HCT-15; conditions: Homo sapiens; HCT-15, colon cancer; single dose 10 μM; read-out: Growth inhibition %
Procedure: as §1, §2

[33] = tested on: UACC-257; experiment: NCI-60 one-dose screen, UACC-257; conditions: Homo sapiens; UACC-257, melanoma; single dose 10 μM; read-out: Growth inhibition %
Procedure: as §1, §2

[34] = tested on: SK-MEL-5; experiment: NCI-60 one-dose screen, SK-MEL-5; conditions: Homo sapiens; SK-MEL-5, melanoma; single dose 10 μM; read-out: Growth inhibition %
Procedure: as §1, §2

[35] = tested on: CAKI-1; experiment: NCI-60 one-dose screen, CAKI-1; conditions: Homo sapiens; CAKI-1, renal cancer; single dose 10 μM; read-out: Growth inhibition %
Procedure: as §1, §2

O=C(NNC(=O)N1c2ccccc2C=Cc2ccccc21)c1ccc(Cl)cc1 [Compound 4c, N′-(4-Chlorobenzoyl)-5H-dibenzo[b,f]azepine-5-carbohydrazide]
inhibition at 10 µM [1]: < 10%
inhibition at 10 µM [2]: < 10%
inhibition at 10 µM [3]: < 10%
inhibition at 10 µM [4]: < 10%
inhibition at 10 µM [5]: < 10%
inhibition at 10 µM [6]: 13.3%
inhibition at 10 µM [7]: < 10%
inhibition at 10 µM [8]: < 10%
inhibition at 10 µM [9]: < 10%
inhibition at 10 µM [10]: < 10%
inhibition at 10 µM [11]: < 10%
inhibition at 10 µM [12]: < 10%
inhibition at 10 µM [13]: < 10%
inhibition at 10 µM [14]: < 10%
inhibition at 10 µM [15]: < 10%
inhibition at 10 µM [16]: < 10%
inhibition at 10 µM [17]: < 10%
inhibition at 10 µM [18]: < 10%
inhibition at 10 µM [19]: < 10%
inhibition at 10 µM [20]: < 10%
inhibition at 10 µM [21]: < 10%
inhibition at 10 µM [22]: < 10%
inhibition at 10 µM [23]: < 10%
inhibition at 10 µM [24]: < 10%
inhibition at 10 µM [25]: < 10%
inhibition at 10 µM [26]: < 10%
inhibition at 10 µM [27]: < 10%
inhibition at 10 µM [28]: < 10%
inhibition at 10 µM [29]: < 10%
inhibition at 10 µM [30]: < 10%
inhibition at 10 µM [31]: < 10%
inhibition at 10 µM [32]: < 10%
inhibition at 10 µM [33]: 12.6%
inhibition at 10 µM [34]: < 10%
inhibition at 10 µM [35]: < 10%

Cc1ccc(C(=O)NNC(=O)N2c3ccccc3C=Cc3ccccc32)cc1 [Compound 4d, N′-(4-Methylbenzoyl)-5H-dibenzo[b,f]azepine-5-carbohydrazide]
inhibition at 10 µM [1]: < 10%
inhibition at 10 µM [2]: < 10%
inhibition at 10 µM [3]: < 10%
inhibition at 10 µM [4]: < 10%
inhibition at 10 µM [5]: < 10%
inhibition at 10 µM [6]: < 10%
inhibition at 10 µM [7]: < 10%
inhibition at 10 µM [8]: < 10%
inhibition at 10 µM [9]: < 10%
inhibition at 10 µM [10]: < 10%
inhibition at 10 µM [11]: < 10%
inhibition at 10 µM [12]: < 10%
inhibition at 10 µM [13]: < 10%
inhibition at 10 µM [14]: < 10%
inhibition at 10 µM [15]: < 10%
inhibition at 10 µM [16]: < 10%
inhibition at 10 µM [17]: < 10%
inhibition at 10 µM [18]: < 10%
inhibition at 10 µM [19]: < 10%
inhibition at 10 µM [20]: < 10%
inhibition at 10 µM [21]: < 10%
inhibition at 10 µM [22]: < 10%
inhibition at 10 µM [23]: < 10%
inhibition at 10 µM [24]: < 10%
inhibition at 10 µM [25]: < 10%
inhibition at 10 µM [26]: < 10%
inhibition at 10 µM [27]: < 10%
inhibition at 10 µM [28]: < 10%
inhibition at 10 µM [29]: < 10%
inhibition at 10 µM [30]: < 10%
inhibition at 10 µM [31]: < 10%
inhibition at 10 µM [32]: < 10%
inhibition at 10 µM [33]: < 10%
inhibition at 10 µM [34]: < 10%
inhibition at 10 µM [35]: < 10%

O=C(NNC(=O)N1c2ccccc2C=Cc2ccccc21)c1ccc([N+](=O)[O-])cc1 [Compound 4e, N′-(4-Nitrobenzoyl)-5H-dibenzo[b,f]azepine-5-carbohydrazide]
inhibition at 10 µM [1]: < 10%
inhibition at 10 µM [2]: < 10%
inhibition at 10 µM [3]: < 10%
inhibition at 10 µM [4]: < 10%
inhibition at 10 µM [5]: < 10%
inhibition at 10 µM [6]: < 10%
inhibition at 10 µM [7]: < 10%
inhibition at 10 µM [8]: < 10%
inhibition at 10 µM [9]: < 10%
inhibition at 10 µM [10]: < 10%
inhibition at 10 µM [11]: < 10%
inhibition at 10 µM [12]: < 10%
inhibition at 10 µM [13]: < 10%
inhibition at 10 µM [14]: < 10%
inhibition at 10 µM [15]: < 10%
inhibition at 10 µM [16]: < 10%
inhibition at 10 µM [17]: < 10%
inhibition at 10 µM [18]: < 10%
inhibition at 10 µM [19]: < 10%
inhibition at 10 µM [20]: < 10%
inhibition at 10 µM [21]: < 10%
inhibition at 10 µM [22]: < 10%
inhibition at 10 µM [23]: < 10%
inhibition at 10 µM [24]: < 10%
inhibition at 10 µM [25]: < 10%
inhibition at 10 µM [26]: < 10%
inhibition at 10 µM [27]: < 10%
inhibition at 10 µM [28]: < 10%
inhibition at 10 µM [29]: < 10%
inhibition at 10 µM [30]: < 10%
inhibition at 10 µM [31]: < 10%
inhibition at 10 µM [32]: < 10%
inhibition at 10 µM [33]: < 10%
inhibition at 10 µM [34]: < 10%
inhibition at 10 µM [35]: < 10%
